Test results reported in publication PMC10791743, “Selective CK1α degraders exert antiproliferative activity against a broad range of human cancer cell lines” (Nature Communications, 2024).
pIC50: −log10 of the molar value. “And” between values parts separate entries of the source, which are not always exact repeats. Equal values may be shown once.

Tests used:
Format in all cases: cell-based, human
MOLM-13 cells [1] = assay: MOLM-13 cell viability assay (CTG, 72 h); parameters: key to Cell viability in MOLM-13 cells / cell viability, dose-response replicate values: % viability = 100 − % activity, normalized to controls; details: for Cell viability in MOLM-13 cells: SJ7095 series
CRBN−/− MOLM-13 cells [2] = assay: Wild type versus CRBN−/− MOLM-13 cells (viability, CRBN dependence); parameters: key to cell viability, dose-response replicate values: % viability = 100 − % activity (RLU normalized to negative control); details: for cell viability, dose-response replicate values: MOLM-13 CRBN KO
Text: Having identified SJ7095 as a compound with a potent antiproliferative effect in MOLM-13 cells, we next examined whether the observed effect was CRBN-dependent. […] In an orthogonal approach, we tested SJ7095 in wild-type and CRBN-knockout MOLM-13 cells in a cell viability assay (Supplementary Fig. 1b).
CRBN^−/− MOLM-13 cells were created using CRISPR-Cas9 technology. Briefly, 1 million MOLM-13 cells were transiently transfected with precomplexed ribonuclear proteins (RNPs) consisting of 400 pmol of chemically modified sgRNA (Synthego), 135pmol of SpCas9 protein (St. Jude Protein Production Core), and 500 ng of pMaxGFP (Lonza) via nucleofection (Lonza, 4D-Nucleofector™ X-unit) using solution SF and program EO100 in a 100 µl cuvette according to the manufacturer’s recommended protocol. Transfected cells (GFP+) were single-cell sorted by flow cytometry (St. Jude Flow Cytometry and Cell Sorting Shared Resource) into 96-well tissue culture-treated plates 5 days post nucleofection. Cells were clonally expanded and screened for the desired targeted modification (out-of-frame indels) via targeted deep sequencing using gene-specific primers with partial Illumina adapter overhangs as previously described. Genotyping of clones was performed using CRIS.py[59]. Knockout clones were identified as clones containing only out-of-frame indels. PowerPlex® Fusion System (Promega) was used to confirm final clone identification (Hartwell Center for Biotechnology at St. Jude). All clones tested negative for mycoplasma by the MycoAlert^TMPlus Mycoplasma Detection Kit (Lonza). CRBN knockout confirmed by immunoblot (Supplementary Material).
MOLM-13 cells were plated in Corning 8804BC white 384-well assay plates at the appropriate cell number per well and incubated overnight at 37 °C in a humidified 5 % CO2 incubator. Compounds were transferred to the assay plate from a dose-response plate using a Labcyte Echo 650 Acoustic Liquid Handler (Beckman Coulter , USA). Cytotoxicity was determined following 72 h of incubation using Promega’s CellTiter-Glo reagent according to the manufacturer’s recommendation.
Luminescence was measured on the Envision plate reader (PerkinElmer, USA). Raw luminescence relative light unit (RLU) values for each compound at each concentration were normalized to obtain % activity using the following equation (1): 100 × [(mean(negctrl) – compound)/(mean (negctrl) – mean (posctrl))]. The % activity was converted to % viability using the following equation (2):
(100 – % activity), and then pooled from replicate experiments prior to fitting. Here, negctrl and posctrl refer to the negative (DMSO) and positive controls (staurosporine) on each plate. Dose-response curves were fit to the Hill equation using the GraphPad Prism (version 10). […]

MOLM-13 cells [3] = assay: Annexin-V staining for apoptosis, wild type MOLM-13; details: for total apoptosis, flow cytometry: MOLM-13; for Late apoptosis, flow cytometry / Early apoptosis, flow cytometry: WT
Procedure: (§1) Wild type and CRBN^−/− MOLM-13 cells were grown in 12-well plates (TPP, Techno Plastic Products AG) with 500,000 cells per well in 2 ml total media volume. Cells were treated with 1 μl/ml DMSO or 1 μM compound in triplicate, and incubated for 24 or 72 h at 37 °C. To prepare samples, this buffer was used: 10 mM HEPES, 0.14 M NaCl, 2.5 mM CaCl2 pH 7.4, 2% v/v FBS in UltraPure water (Invitrogen). After incubation, samples were collected in 5-ml tubes for flow cytometry (Falcon). Single-stain controls consisted of ~150 μl of multiple samples combined. Wells were washed with 1 ml of buffer that was added to the corresponding sample tube. Cells were centrifuged at 500×g for 5 min at 4 °C to form a pellet. Supernatant was decanted and cells were washed again with 3 ml of buffer, then centrifuged. After decanting the supernatant, 3 μl of APC-conjugated anti-Annexin-V antibody (BioLegend) was added to each tube in the residual buffer left behind. Samples were mixed by vortex and incubated at room temperature in the dark for 20 min. Samples were then washed and centrifuged a final time, decanting the supernatant and blotting the tubes to remove residual buffer. 50 μl of buffer with DAPI was added to all appropriate samples and mixed, then analyzed by flow cytometry.
(§2) Supplementary Fig. 13: Gating for Annexin V flow cytometry analysis. Total cells were gated to remove cell debris, followed by single cell gating on the FSC-A/FSC-H diagonal. Within the single […]
(§3) Live cells are negative for both fluorescent markers, DAPI positive/APC negative cells are necrotic, APC positive/DAPI negative cells are still alive but in the early stages of apoptosis, and double positive cells are dead via apoptosis. Percentages of early and late apoptosis were plotted in supplementary figures 4 and 5.
(§4) (1 picture or pasted object on this page, not shown here)

CRBN−/− MOLM-13 cells [4] = assay: Annexin-V staining for apoptosis, CRBN−/− MOLM-13; details: for Late apoptosis, flow cytometry / Early apoptosis, flow cytometry: CRBN-/-; for total apoptosis, flow cytometry: MOLM-13 CRBN-/-
Procedure: as §1, §2, §3, §4

## O=C1CCC(N2Cc3c(CNC(=O)c4ccc(F)cc4)cccc3C2=O)C(=O)N1 (stereo not shown) [SJ7095]
MOLM-13 cells [1]; CTG 72 h
  Effect on MOLM-13 cell viability (cytotoxicity): high toxicity against MOLM-13 cells
MOLM-13 cells [1]; Homo sapiens, MOLM-13, CTG 72 h, read-out: IC50, MOLM-13 cell growth/viability
  pIC50: 7.15
MOLM-13 cells [1]; Conc 0.00049449
  Cell viability in MOLM-13 cells: 80.5902 and 73.7069 and 73.7893
MOLM-13 cells [1]; Conc 0.00148346
  Cell viability in MOLM-13 cells: 82.2036 and 73.2259 and 66.8432
MOLM-13 cells [1]; Conc 0.00445039
  Cell viability in MOLM-13 cells: 62.2665 and 53.3724 and 60.8209
MOLM-13 cells [1]; Conc 0.0133512
  Cell viability in MOLM-13 cells: 41.9606 and 38.8721 and 37.6352
MOLM-13 cells [1]; Conc 0.0400535
  Cell viability in MOLM-13 cells: 36.9208 and 28.2407 and 35.9101
MOLM-13 cells [1]; Conc 0.12016
  Cell viability in MOLM-13 cells: 28.8773 and 35.0792 and 25.4306
MOLM-13 cells [1]; Conc 0.360481
  Cell viability in MOLM-13 cells: 19.8758 and 18.9138 and 19.7816
MOLM-13 cells [1]; Conc 1.08144
  Cell viability in MOLM-13 cells: 22.2039 and 16.4235 and 15.6504
MOLM-13 cells [1]; Conc 3.24433
  Cell viability in MOLM-13 cells: 17.3048 and 13.4196 and 15.362
MOLM-13 cells [1]; Conc 9.733 (unit not given), replicates
  Cell viability in MOLM-13 cells: 7.49 and 6.672 and 5.493
CRBN−/− MOLM-13 cells [2]
  Antiproliferative activity in wild-type vs CRBN-knockout MOLM-13: CRBN dependent
CRBN−/− MOLM-13 cells [2]; Concentration 0.00019646
  cell viability, dose-response replicate values: 106.764 and 101.3 and 98.2605
CRBN−/− MOLM-13 cells [2]; Concentration 0.00058939
  cell viability, dose-response replicate values: 112.453 and 102.748 and 97.5209
CRBN−/− MOLM-13 cells [2]; Concentration 0.00176818
  cell viability, dose-response replicate values: 107.1 and 103.949 and 100.448
CRBN−/− MOLM-13 cells [2]; Concentration 0.00530453
  cell viability, dose-response replicate values: 108.398 and 94.7486 and 104.144
CRBN−/− MOLM-13 cells [2]; Concentration 0.0159136
  cell viability, dose-response replicate values: 99.903 and 106.159 and 104.247
CRBN−/− MOLM-13 cells [2]; Concentration 0.0477407
  cell viability, dose-response replicate values: 84.8196 and 104.71 and 103.354
CRBN−/− MOLM-13 cells [2]; Concentration 0.143222
  cell viability, dose-response replicate values: 100.147 and 105.205 and 99.7326
CRBN−/− MOLM-13 cells [2]; Concentration 0.429667
  cell viability, dose-response replicate values: 110.361 and 97.2541 and 107.93
CRBN−/− MOLM-13 cells [2]; Concentration 1.289
  cell viability, dose-response replicate values: 106.321 and 101.904 and 97.9209
CRBN−/− MOLM-13 cells [2]; Concentration 3.867
  cell viability, dose-response replicate values: 79.059 and 84.9366 and 87.8303
MOLM-13 cells [3]; 1 μM, 72 h, vs DMSO
  Treatment-induced cell death (annexin-V): increased cell death
MOLM-13 cells [3]; SI_Fig 4c, DMSO 9.7, 8.6, 9.8
  total apoptosis, flow cytometry: 14.9 and 14.2 and 11
MOLM-13 cells [3]; SI_Fig 5c, DMSO 8, 7.6, 6.1
  total apoptosis, flow cytometry: 18.3 and 22.4 and 27.2
MOLM-13 cells [3]; SI_Fig 4b, DMSO 3, 2.7, 3
  Late apoptosis, flow cytometry: 4.8 and 4.2 and 3.7
MOLM-13 cells [3]; SI_Fig 4b, DMSO 6.8, 5.8, 6.8
  Early apoptosis, flow cytometry: 10.1 and 7.2
MOLM-13 cells [3]; SI_Fig 5b, DMSO 1.5, 1.2, 1.2
  Late apoptosis, flow cytometry: 4.9 and 6.3 and 8.6
MOLM-13 cells [3]; SI_Fig 5b, DMSO 6.5, 6.4, 4.9
  Early apoptosis, flow cytometry: 13.4 and 16.1 and 18.6
CRBN−/− MOLM-13 cells [4]; 1 μM
  Effect on viability of CRBN−/− cells (annexin-V): no effect on the viability
CRBN−/− MOLM-13 cells [4]; SI_Fig 4b, DMSO 3.1, 3.5, 3.3
  Late apoptosis, flow cytometry: 2.7 and 3 and 3.2
CRBN−/− MOLM-13 cells [4]; SI_Fig 4b, DMSO 7.1, 7.5, 7.8
  Early apoptosis, flow cytometry: 6.9 and 8.1 and 7
CRBN−/− MOLM-13 cells [4]; SI_Fig 5b, DMSO 1.3, 1.9, 2
  Late apoptosis, flow cytometry: 1.7 and 2.1 and 1.9
CRBN−/− MOLM-13 cells [4]; SI_Fig 5b, DMSO 4.6, 5.9, 7.6
  Early apoptosis, flow cytometry: 6.5 and 6.7 and 7.2
CRBN−/− MOLM-13 cells [4]; SI_Fig 4c, DMSO 10.2, 11.1, 11.2
  total apoptosis, flow cytometry: 9.6 and 11.1 and 10.2
CRBN−/− MOLM-13 cells [4]; SI_Fig 5c, DMSO 5.8, 7.8, 9.6
  total apoptosis, flow cytometry: 8.2 and 8.8 and 9.1
